Patent US20110275711A1, “METHOD FOR TREATING MACULAR EDEMA” (R-TECH UENO, LTD., priority 2010, published 2011)

Assays:
macular edema = conditions: package insert of Xalatan; cited from earlier work
[1] = test system: rhVEGF induced retinal vascular leakage; assay: Inhibition of rhVEGF induced retinal vascular leakage in rabbit model (vitreous fluorescein leakage); assay type: in vivo, GD79B rabbit (pigmented); conditions: 50 μl test composition intravitreal just after rhVEGF 500 ng; for Fluorescein Leakage (AUC) right eye (treated), Mean: measured 48 h after rhVEGF, 1 h after sodium fluorescein i.v., n=8; for Inhibition of fluorescein leakage (vs. control): AUC ratio compared with vehicle control group; for ratio of AUC right/left, Mean ± S.D.: treated eye/untreated eye
Source text: The effect of the fatty acid derivative to inhibit retinal vascular leakage in rabbit model.
Animals: GD79B rabbit (pigmented). Each group contains 8 animals.
1) 0.15 w/v % isopropyl unoprostone: formulation example 1 2) 4 w/v % triamcinolone acetonide: Kenacort® Retard (Bristol-Myers Squibb Japan, Tokyo, JP) (positive control) 3) vehicle of isopropyl unoprostone (composition comprising the ingredients of formulation example 1 except for isopropyl unoprostone) (control)
Retinal vascular leakage model animals were prepared. Recombinant human vascular endothelial cell growth factor (rhVEGF) 500 ng (in 50 μl) was injected intravitreally in the right eye of animals. Just after the injection of rhVEGE, 50 μl of test composition 1 or 2 was injected intraviterally in the right eye of the animal. The left eyes were remain untreated (no rhVEGE nor test compositions).
Forty seven (47) hours after the rhVEGF injection, 50 mg/kg of sodium fluorescein (10 w/v % in physiological saline) was injected to the animals via auricular veins. One (1) hour after the injection of sodium fluorescein, the fluorescence intensities in the vitreous body of the treated and untreated eyes were measured by using a corneal spectrophotometer. Based on the measured value, area under the curve (AUC) of the fluorescence intensity that reflects the leakage and the ratio of AUC (treated eye/untreated eye, i.e. right eye/left eye) were calculated. The AUC ratio of isopropyl unoprostone and triamcinolone acetonide administered group were compared to the AUC ratio of the control group to give the inhibition (%) of retinal vascular leakage.

SMILES | macular edema as side effect (macular edema) | Fluorescein Leakage (AUC) right eye (treated), Mean [1] | Inhibition of fluorescein leakage (vs. control) [1] | ratio of AUC right/left, Mean ± S.D. [1]
CC(C)OC(=O)CCC/C=C\C[C@@H]1[C@@H](CC[C@@H](O)CCc2ccccc2)[C@H](O)C[C@@H]1O [latanoprost, (+)-Isopropyl (Z)-7-[(1R,2R,3R,5S)-3,5-dihydroxy-2-[(3R)-3-hydroxy-5-phenylpentyl]cyclopentyl]-5-heptenoate] | causes macular edema as a side effect |  |  | 
CCCCCCCC(=O)CC[C@@H]1[C@@H](C/C=C\CCCC(=O)OC(C)C)[C@@H](O)C[C@H]1O [isopropyl unoprostone, (+)-isopropyl (Z)-7-[(1R,2R,3R,5S)-3,5-dihydroxy-2-(3-oxodecyl)cyclopentyl]hept-5-enoate] |  | 10998.4 | 60% | 3.43 ± 4.01
CC1(C)O[C@@H]2C[C@H]3[C@@H]4CCC5=CC(=O)C=C[C@]5(C)[C@@]4(F)[C@@H](O)C[C@]3(C)[C@]2(C(=O)CO)O1 [triamcinolone acetonide] |  | 3715.6 | 89% | 0.98 ± 0.44
